Several values for one entry are separate records, joined by “and”; a condition that tells them apart may be missing. Equal values may be shown once.
Tests used:
insulin receptor (INS R) = test: Quantification of phosphorylated insulin receptor by immunoblotting in HepG2 cells; type: cell-based, human; settings: 10^−7 M insulin
Protocol: To investigate the effect of oxidovanadium(V) complexes on insulin receptor (INS R) phosphorylation, HepG2 cells (1.0 × 10^5 cells/mL) were treated with 2.5 × 10^−5 M oxidovanadium(V) compounds, V^IVOSO4•3H2O, and 10^−7 M insulin (positive control) for 3 and 24 h, respectively. As negative controls, cells exposed to free-complete medium (negative control for treatment with V^IVOSO4•3H2O and insulin) and cells exposed to 0.0125% DMSO (negative control for treatment with complexes) were used.
After cell lysis, 50 µg of total protein was denatured by adding 1/5th volume of Laemmli’s buffer 6× (15% SDS, 0.01% bromophenol blue, 74% glycerol, 7.5 × 10^−2 M Tris, pH 6.8, 1/8th volume of 2-mercaptoethanol) followed by heating at 95 °C for 5 min. […]
The separated proteins were transferred (using a Trans-Blot Semi-Dry transfer cell, Bio-Rad) to a nitrocellulose membrane (0.45 µm, Bio-Rad), blocked with 1% BSA for 1 hour, and incubated overnight with the primary antibody: Mouse anti-insulin receptor-β chain (INS R-β) (1:500, Santa Cruz Biotechnology cat. No. sc-57342), rabbit anti-phosphorylated INS R-Y1162/3 (pINS R, 1:400, R&D Systems, Minneapolis, MN, USA cat. No. AF2507) and mouse anti-β-actin (1/2000, Bio-Rad cat. no. MCA5775GA). […] The data were expressed as the mean ± SD of two individual experiments performed in duplicate.

HepG2 cells = test: Cytotoxicity, XTT cell viability assay; type: cell-based, human; settings: 24 h
Protocol: HepG2 cell line was purchased from American Type Culture Collection. The cells were grown in Dulbecco’s Modified Eagle’s Medium (DMEM) with 4.5‰ glucose, supplemented with 10% (v/v) fetal bovine serum, 100 units/mL penicillin, and 100 µg/mL streptomycin (complete medium). HepG2 cells were maintained at 37 °C in a 5% carbon dioxide incubator and were periodically sub-cultivated.
To determine the cytotoxic concentration of the synthesized oxidovanadium(V) complexes and V^IVOSO4•3H2O, HepG2 cells were incubated with increasing molar concentrations (1 × 10^−5 ÷ 3 × 10^−4 M) of compounds.
HepG2 cells (1.5 × 10^4 cells/mL) were seeded in complete medium on a 96-well cell culture plate and were incubated at 37 b0C, as previously described. […] Control cells were represented by cells exposed to free-complete medium and medium supplemented with 0.15% DMSO. The cytotoxicity of tested compounds on the HepG2 cell line was assessed by the 2, 3-bis-(2-methoxy-4-nitro-5-sulfophenyl)-2H-tetrazolium-5-carboxanilide) (XTT) cell viability assay. The method is based on the reduction of XTT, in the presence of phenazine methosulfate, to a water-soluble orange formazan derivative. The absorbance of the sample, due to the intensity of the orange color, which is proportional to the number of viable cells, was recorded at 450 nm using the Tecan Infinite M200Pro spectrophotometer.

[1] = Solution stability over time in PBS by UV-Vis spectrophotometry; type: physicochemical; settings: for decrease in the intensity of λmax: 2 × 10^−4 M in PBS pH 7.4, 37 °C; for stability in PBS: physiological pH (7.4), 37 °C
Protocol: Electronic absorption spectra for the 2 × 10^−4 M solution of the four oxidovanadium(V) complexes in PBS at pH 7.4 were recorded outright on the prepared solutions (designated as T 0 h in the histograms), after the preparation at 1 h (T 1 h), 3 h (T 3 h), 6 h (T 6 h), 9 h (T 9 h), and 24 h (T 24 h), respectively. The prepared solutions were incubated at 37 °C, and the readings were performed over the entire 500 ÷ 230 nm range using a microplate reader spectrophotometer TECAN Infinite M200Pro and a 96-well UV micro test plate. The data were expressed as the average ± SD of three independent measurements.

[2] = target: T1, bovine serum albumin (BSA) (Bos taurus, UniProt P02769); test: Fluorescence quenching of serum albumin (Stern–Volmer); type: binding; settings: for Stern–Volmer constant KSV: BSA 2 × 10^−6 M, PBS pH 7.4, emission 347 nm; for decrease of BSA fluorescence intensity: highest tested concentration (2.5 × 10^−5 M), 2 × 10^−6 M BSA, PBS pH 7.4, vs free BSA and BSA with DMSO; for collision quenching constant Kq (Kq = Ksv/τ0): τ0 = 10^−8 s
T1 construct: α-Amylase from porcine pancreas, bovine serum albumin (BSA); purchased SIGMA-Aldrich (Merck KGaA, Darmstadt, Germany)
T1 sequence (P02769 25-607): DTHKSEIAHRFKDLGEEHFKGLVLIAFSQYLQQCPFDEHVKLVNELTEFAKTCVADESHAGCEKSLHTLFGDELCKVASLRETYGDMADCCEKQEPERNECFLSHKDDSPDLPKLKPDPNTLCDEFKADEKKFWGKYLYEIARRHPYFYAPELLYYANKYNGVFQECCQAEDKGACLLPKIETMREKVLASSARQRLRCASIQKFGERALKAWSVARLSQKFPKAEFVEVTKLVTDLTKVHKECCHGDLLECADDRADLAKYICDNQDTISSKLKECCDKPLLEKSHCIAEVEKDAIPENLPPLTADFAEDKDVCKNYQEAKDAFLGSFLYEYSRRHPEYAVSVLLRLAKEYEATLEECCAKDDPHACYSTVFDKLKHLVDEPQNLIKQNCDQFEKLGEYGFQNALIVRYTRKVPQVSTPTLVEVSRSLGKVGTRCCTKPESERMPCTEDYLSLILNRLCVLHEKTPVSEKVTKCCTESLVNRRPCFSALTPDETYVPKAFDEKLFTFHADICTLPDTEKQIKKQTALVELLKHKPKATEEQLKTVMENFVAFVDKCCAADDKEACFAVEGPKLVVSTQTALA
Protocol: The capacity of the oxidovanadium(V) compounds to bind to bovine serum albumin (BSA) was monitored by fluorescence quenching assay. A solution of 2 × 10^−6 M BSA in PBS, pH 7.4, was incubated for 2 h at 37 b0C with each vanadium-based compound or V^IVOSO4•3H2O at increasing molar concentrations (1 × 10^−6 ÷ 2.5 × 10^−5 M) or with 0.025% DMSO (negative control). The samples were excited at 295 nm and the emission spectra of all BSA solutions were recorded in the 300 ÷ 450 nm range using a JASCO FP-750 spectrofluorometer. The final spectrum was the average of three recordings measured at a scanning speed of 250 nm/minute, with an excitation and emission bandwidth of 5 nm. […] In addition, by applying the Stern–Volmer equation [23], the mechanism by which the complexes bind to BSA was investigated as it is described in the Supplementary material.
The Stern–Volmer e quation
The Stern–Vol mer equation [1] is:
I0/I= 1+ Kqτ0[Q] = 1 + Ksv[Q], where: I0 = the fluor escence intensities of fr ee BS A solution at 347 nm, I = the fluorescence intensities of BS A solution at 347 nm in the presence of vanadium […]
[Q] = the concentration of vanadium co mplexes, τ0 = the fluorescence l ifetime of the biopolymer (10-8 s), Kq = the coll isi on quenching constant;
Ksv = the Stern-Volmer constant.
Stern–Vol mer plots of the B SA fluorescence quenching in t he prese nce of each compou nd are represented in Fig. S4, together with the ir linear best fit in which y = I0/I, x = [Q], a = slope of the li ne, […]
The fluorescence intensitie s are the average of three recordings measured at a scanning speed of 250 nm/min, with an excitation and emissio n bandwidth of 5 nm.

[3] = target: T2, α-Amylase from porcine pancreas (Sus scrofa, UniProt P00690); test: Inhibition of the α-amylase activity (DNS/starch); type: biochemical; settings: 1.8 × 10^−2 and 2.0 × 10^−2 M, compared to DMSO
T2 construct: α-Amylase from porcine pancreas, bovine serum albumin (BSA); purchased SIGMA-Aldrich (Merck KGaA, Darmstadt, Germany); host or cells: porcine pancreas
T2 sequence (P00690 16-511): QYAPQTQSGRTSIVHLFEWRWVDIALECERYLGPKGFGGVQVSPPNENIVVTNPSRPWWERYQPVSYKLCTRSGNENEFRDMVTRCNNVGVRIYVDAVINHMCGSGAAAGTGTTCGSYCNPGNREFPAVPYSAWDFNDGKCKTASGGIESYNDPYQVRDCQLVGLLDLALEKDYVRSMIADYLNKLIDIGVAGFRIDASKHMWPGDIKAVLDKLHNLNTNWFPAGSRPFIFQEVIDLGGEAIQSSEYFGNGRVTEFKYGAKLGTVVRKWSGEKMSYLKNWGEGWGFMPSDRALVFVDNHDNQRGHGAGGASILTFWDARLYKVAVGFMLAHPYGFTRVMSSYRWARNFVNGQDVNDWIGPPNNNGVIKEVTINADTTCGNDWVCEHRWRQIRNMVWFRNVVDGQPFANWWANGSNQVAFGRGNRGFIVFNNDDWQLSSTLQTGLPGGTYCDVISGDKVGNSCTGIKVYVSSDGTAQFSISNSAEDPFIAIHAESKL
Protocol: The capacity of the obtained complexes to inhibit pancreatic α-amylase activity in vitro was analyzed using a slightly modified procedure of the one described by Apostolidis and Lee. Thus, 100 µL solution of complexes (1.8 ÷ 2.5 × 10^−2 M), 2.5 × 10^−2 M V^IVOSO4•3H2O, 2.5 × 10^−2 M acarbose (positive control) and 12.5% DMSO (negative control) in reaction buffer (2 × 10^−2 M sodium phosphate, pH 6.9 with 6 × 10^−3 M sodium chloride) were pre-exposed to 100 µL of 20 units/mL α-amylase in reaction buffer for 10 min at room temperature. Then, 100 µL of 1% starch solution in reaction buffer were added and the samples were incubated at room temperature for 10 min. The reaction was stopped with 200 µL of 3, 5-dinitrosalicylic acid (DNS). The samples were heated at 90 ÷ 95 °C for 10 min and then left to cool down at room temperature. The reaction mixture was further diluted with 4 mL of distilled water. As a control for the inhibitory effect of acarbose, a sample containing starch and enzyme was used. The yellow/orange color intensity was measured using the microplate reader TECAN Infinite M200Pro at 540 nm. The experiment was performed in triplicate. The blank (sample without starch and enzyme) absorbance was subtracted from the absorbance of all samples and the activity of α-amylase was expressed as % of DMSO (negative control).

[4] = ratio of BSA quenching constants

In the case of “insulin: human recombinant insulin, positive control for INS R phosphorylation”, the “increase of INS R phosphorylation” value (insulin receptor (INS R); 3 h, HepG2, compared to cells exposed to free-complete medium) is reported as “about 80%” and the “INS R phosphorylation” value (insulin receptor (INS R); 24 h, HepG2, compared to control cells) is reported as “reduced and insignificant”.
With `N.N.[Cl][Pt][Cl]` [cisplatin] the “reduction of HepG2 viability” value (HepG2 cells; 1 × 10^−5 M, compared to DMSO treated cells) was 44%.
For `CO.CO.COc1cccc2c1[O][V](=[O])([O][V]1(=[O])[O]C(=O)[C@@H](C(C)C)N=Cc3cccc(OC)c3[O]1)[O]C(=O)[C@@H](C(C)C)N=C2` (stereo partly shown) [2a, [{V^VO(R-vanval)(CH3OH)}2(μ2-O)]], the “decrease in the intensity of λmax” value ([1]; 1 h vs T 0 h) was “less than 10%”, the “decrease in the intensity of λmax” value ([1]; 3 h vs T 0 h) was “less than 20%” and the “decrease in the intensity of λmax” value ([1]; 6 h vs T 0 h) was about 20%. The “decrease in the intensity of λmax” value ([1]; 9 h vs T 0 h) was about 30%, the “decrease in the intensity of λmax” value ([1]; 24 h vs T 0 h) was about 30% and the “stability in PBS” value [1] was “stable in PBS at physiological pH and temperature for up to three hours”. For the same compound, the “Stern–Volmer constant KSV” value [2] was 171800 M⁻¹, the “decrease of BSA fluorescence intensity” value [2] was about 80% and the “Kq(2a)/Kq(1a)” value [2, 4] was 2 and 2.12. The “Kq(2a)/Kq(2b)” value [2, 4] was 0.69, the “collision quenching constant Kq (Kq = Ksv/τ0)” value (from here on “collision quenching constant Kq”) [2] was 1.718e+13 M⁻¹ s⁻¹ and the “increase of α-amylase enzyme activity” value [3] was 35%.
For `CO.CO.COc1cccc(C=N[C@H](C(=O)[O-])C(C)C)c1[O-].COc1cccc(C=N[C@H](C(=O)[O-])C(C)C)c1[O-].[O]=[V+2][O][V+2]=[O]` [2b, [{V^VO(S-vanval)(CH3OH)}2(μ2-O)]], the “decrease in the intensity of λmax” value ([1]; 1 h vs T 0 h) was “less than 10%”, the “decrease in the intensity of λmax” value ([1]; 3 h vs T 0 h) was “less than 20%” and the “decrease in the intensity of λmax” value ([1]; 6 h vs T 0 h) was about 20%. For the same compound, the “decrease in the intensity of λmax” value ([1]; 9 h vs T 0 h) was about 30%, the “decrease in the intensity of λmax” value ([1]; 24 h vs T 0 h) was about 30% and the “stability in PBS” value [1] was “stable in PBS at physiological pH and temperature for up to three hours”. The “Stern–Volmer constant KSV” value [2] was 248900 M⁻¹, the “decrease of BSA fluorescence intensity” value [2] was about 80% and the “Kq(2b)/Kq(1b)” value [2, 4] was 4 and 4.14. The “collision quenching constant Kq” value [2] was 2.489e+13 M⁻¹ s⁻¹ and the “increase of α-amylase enzyme activity” value [3] was 35%.
With `CC(C)[C@H](N=Cc1ccccc1[O-])C(=O)[O-].CC(C)[C@H](N=Cc1ccccc1[O-])C(=O)[O-].O.[O]=[V+2][O][V+2]=[O]` [1b, [{V^VO(S-salval)(H2O)}(μ2-O){V^VO(S-salval)}]] the “decrease in the intensity of λmax” value ([1]; 1 h vs T 0 h) was “about 10%”, the “decrease in the intensity of λmax” value ([1]; 3 h vs T 0 h) was “about 25%” and the “decrease in the intensity of λmax” value ([1]; 6 h vs T 0 h) was “about 40%”. The “decrease in the intensity of λmax” value ([1]; 9 h vs T 0 h) was “about 50%”, the “decrease in the intensity of λmax” value ([1]; 24 h vs T 0 h) was “about 70%” and the “stability in PBS” value [1] was “stable in PBS at physiological pH and temperature for up to three hours”. The “Stern–Volmer constant KSV” value [2] was 60100 M⁻¹, the “decrease of BSA fluorescence intensity” value [2] was “about 60%” and the “collision quenching constant Kq” value [2] was 6.01e+12 M⁻¹ s⁻¹. The “inhibitory effect on α-amylase activity” value [3] was “more than 18%”.
With `O.O.O.O=S(=O)([O-])[O-].[O]=[V+2]` [V^IVOSO4•3H2O, reference compound] the “decrease of BSA fluorescence intensity” value [2] was “does not reduce the fluorescence intensity of BSA” and the “reduction of HepG2 viability” value (HepG2 cells; highest concentration (3 × 10^−4 M), compared to control cells) was 34%.
With `CC(C)[C@H]1N=Cc2ccccc2[O][V](=[O])([O][V]2(=[O])[O]C(=O)[C@@H](C(C)C)N=Cc3ccccc3[O]2)[O]C1=O.O` (stereo partly shown) [1a, [{V^VO(R-salval)(H2O)}(μ2-O){V^VO(R-salval)}]] the “decrease in the intensity of λmax” value ([1]; 1 h vs T 0 h) was “about 10%”, the “decrease in the intensity of λmax” value ([1]; 3 h vs T 0 h) was “about 25%” and the “decrease in the intensity of λmax” value ([1]; 6 h vs T 0 h) was “about 40%”. For the same compound, the “decrease in the intensity of λmax” value ([1]; 9 h vs T 0 h) was “about 50%”, the “decrease in the intensity of λmax” value ([1]; 24 h vs T 0 h) was “about 70%” and the “stability in PBS” value [1] was “stable in PBS at physiological pH and temperature for up to three hours”. The “Stern–Volmer constant KSV” value [2] was 80700 M⁻¹, the “decrease of BSA fluorescence intensity” value [2] was “about 60%” and the “Kq(1a)/Kq(1b)” value [2, 4] was 1.34. For the same compound, the “collision quenching constant Kq” value [2] was 8.07e+12 M⁻¹ s⁻¹ and the “inhibitory effect on α-amylase activity” value [3] was “more than 18%”.

Source: paper PMC8156053, “Synthesis, Characterization, and In Vitro Insulin-Mimetic Activity Evaluation of Valine Schiff Base Coordination Compounds of Oxidovanadium(V)” (Biomedicines, 2021)
